Laboratory results from patent publication US4667019A, “Azo dyes containing a triazolyl group for use in liquid crystalline materials” (Kernforschungszentrum Karlsruhe GmbH, priority 1986, dated 1987).

What was measured:
Type in all cases: physicochemical
[1] = degree of order S (dichroic ratio CR) in ZLI 1840 at room temperature; parameters: key: S = (CR-1)/(CR+2), with CR = E∥/E⊥ dichroic ratio; conditions: ZLI 1840 wide-range mixture (Merck)
Description: (§1) The degrees of order S and the solubilities L, both measured at room temperature in the ZLI 1840 wide-range mixture from Merck, are summarized in Table 1 for Examples 1-18. The degrees of order S and the solubilities L for Examples 19-32, measured at room temperature in the […] liquid crystal mixture from Merck, are summarized in Table 3.
(§2) The degree of order S was determined in accordance with the known equation S=(CR-1)/(CR+2), using commercial measuring cells with homogeneous edge orientation. The dichroic ratio CR was determined by measuring the extinctions E^.parallel. (measured using polarized light parallel to the preferred direction of the nematic phase) and E^.perp. (measured using polarized light perpendicular to the preferred direction of the nematic phase) and using the relationship CR=E^.parallel. /E^.perp. the dye concentration being chosen so that E^.parallel. was from 1 to 2. The measurements were carried out using a Beckman Acta CIII spectrophotometer.

[2] = solubility L in ZLI 1840 at room temperature; conditions: ZLI 1840 (Merck), stirred 1 week
Description: as §1
(§3) The solubility was determined as follows: 50 mg of the particular dye were stirred into 1 ml of ZLI 1840 at room temperature for 1 week, and saturation of the soluton was determined by comparing extinction values.

[3] = light-stability, high-speed exposure of the measuring cell in a Suntest; conditions: 25° C
Description: The light-stability was determined by high-speed exposure of the measuring cell in a Suntest from Hanau, at 25° C. In this procedure, the decrease in E^.parallel. was measured. The initial extinction E^.parallel. and the exposure time E^.parallel.80% after which E^.parallel. has decreased to 80% are shown in Table 2 for Examples 5, 8, 9, 10, 11, 12, 13, 14 and 15. The percentage change in E^.parallel.0 is plotted against the exposure time in FIGS. 2, 3 and 4 for Examples 8, 11 and 15.

[4] = degree of order S (dichroic ratio CR) in ZLI 1957/5 at room temperature; conditions: ZLI 1957/5 liquid crystal mixture (Merck)
Description: as §1, §2

[5] = solubility L in ZLI 1957/5 at room temperature; conditions: ZLI 1957/5 liquid crystal mixture (Merck)
Description: as §1, §3

Row | Compound | Degree of order S [1] | Solubility L [2] | exposure time E∥80% after which E∥ has decreased to 80% [3] | Degree of order S [4] | Solubility L [5]
1 | Cc1nn(-c2ccc(N=Nc3ccc(N4CCOCC4)cc3)cc2)nc1C [Example 1] | 0,64 |  |  |  | 
2 | CN(C)c1ccc(N=Nc2ccc(-n3nc4c(n3)CCCC4)cc2)cc1 [Example 2] | 0,71 | 1,4% |  |  | 
3 | Cc1nn(-c2ccc(N=Nc3ccc(N=Nc4ccc(N(C)C)cc4)cc3)cc2)nc1C [Example 3] | 0,74 | 0,4% |  |  | 
4 | COc1cc(N=Nc2ccc(N(C)C)cc2)ccc1N=Nc1ccc(-n2nc(C)c(C)n2)cc1 [Example 4] | 0,70 | 0,7% |  |  | 
5 | CCOC(=O)c1nn(-c2ccc(N=Nc3cc(C)c(N=Nc4ccc(N(C)C)cc4)cc3C)cc2)nc1C [Example 5] | 0,73 | 0,2% | 101 h |  | 
6 | Cc1nn(-c2cc(Br)c(N=Nc3ccc(N=Nc4ccc(N(C)C)cc4)cc3)c(Br)c2)nc1C [Example 6] | 0,61 | 1,8% |  |  | 
7 | Cc1nn(-c2cc(C#N)c(N=Nc3ccc(N=Nc4ccc(N(C)C)cc4)cc3)c(C#N)c2)nc1C [Example 7] | 0,74 | < 0,1% |  |  | 
8 | CCOC(=O)c1nn(-c2ccc(N=Nc3ccc(N=Nc4ccc(N(C)C)cc4)c4ccccc34)cc2)nc1C [Example 8] | 0,74 | 0,5% | 27,5 h |  | 
9 | Cc1ccc2nn(-c3cc(C)c(N=Nc4cc(C)c(N=Nc5ccc(N(C)C)cc5)cc4C)cc3C)nc2c1 [Example 9] | 0,76 | 0,5% | 111 h |  | 
10 | Cc1ccc2nn(-c3ccc(N=Nc4cc(C)c(N=Nc5ccc(N(C)C)cc5)cc4C)cc3)nc2c1 [Example 10] | 0,73 | 0,6% | 147 h |  | 
11 | Cc1ccc2nn(-c3ccc(N=Nc4ccc(N=Nc5ccc(N)cc5C)cc4C)cc3C)nc2c1 [Example 11] |  |  | 170 h |  | 
12 | CCCCN(CCCC)c1ccc(N=Nc2ccc(N=Nc3ccc(-n4nc5ccc(C)cc5n4)c(C)c3)c(C)c2)cc1 [Example 13] | 0,74 | > 5% | 97 h |  | 
13 | CCCCc1ccc2nn(-c3ccc(N=Nc4cc(C)c(N=Nc5ccc(N(C)C)cc5)cc4C)cc3C)nc2c1 [Example 14] | 0,76 | > 2,3% | 111 h |  | 
14 | CCCCc1ccc2nn(-c3ccc(N=Nc4ccc(N=Nc5ccc(N(C)C)cc5)cc4C)cc3C)nc2c1 [Example 15] | 0,79 | 2,8% | 68 h |  | 
15 | CCCCOc1ccc(N=Nc2ccc(N=Nc3ccc(-n4nc5ccc(C)cc5n4)c(C)c3)c(C)c2)c(C)c1 [Example 16] | 0,74 | 0,5% |  |  | 
16 | Cc1ccc2nn(-c3ccc(N=Nc4cc(C)c(N=Nc5ccc(OCc6ccccc6)cc5C)cc4C)cc3C)nc2c1 [Example 17] | 0,74 | 0,6% |  |  | 

Row | Compound | Degree of order S [1] | Solubility L [2] | exposure time E∥80% after which E∥ has decreased to 80% [3] | Degree of order S [4] | Solubility L [5]
17 | CCC1CCC(c2ccc(COc3ccc(N=Nc4cc(C)c(N=Nc5ccc(-n6nc7ccc(C)cc7n6)c(C)c5)cc4C)c(C)c3)cc2)CC1 (stereo not shown) [Example 18] | 0,77 | 2,9% |  |  | 
18 | CCCCOC(=O)c1ccc2nn(-c3ccc(N=Nc4cc(C)c(N=Nc5ccc(N(C)C)cc5)cc4C)cc3C)nc2c1 [Example 19] | 0,76 | 0,3% |  |  | 
19 | CCCCN(C)c1ccc(N=Nc2cc(C)c(N=Nc3ccc(-n4nc5ccc(C)cc5n4)c(C)c3)cc2C)cc1 [Example 20] |  |  |  | 0,74 | 2,0%
20 | Cc1ccc2nn(-c3ccc(N=Nc4ccc(N=Nc5ccc(N(C)C)cc5)cc4C)cc3C)nc2c1 [Example 21] | 0,76 | 2,8% |  |  | 
21 | CCCCNc1ccc(N=Nc2ccc(N=Nc3ccc(-n4nc5ccc(C)cc5n4)c(C)c3)c(C)c2)cc1 [Example 22] | 0,77 | > 5% |  |  | 
22 | Cc1ccc2nn(-c3ccc(N=Nc4ccc(N=Nc5ccc(NCc6ccccc6)cc5)cc4C)cc3C)nc2c1 [Example 23] | 0,79 | 1,9% |  |  | 
23 | CCCCN(C)c1ccc(N=Nc2ccc(N=Nc3ccc(-n4nc5ccc(C)cc5n4)c(C)c3)c(C)c2)cc1 [Example 24] | 0,77 | > 5% |  |  | 
24 | Cc1ccc2nn(-c3ccc(N=Nc4ccc(N=Nc5ccc(N(C)Cc6ccccc6)cc5)cc4C)cc3C)nc2c1 [Example 25] | 0,76 | 1,9% |  |  | 
25 | Cc1ccc2nn(-c3ccc(N=Nc4ccc(N=Nc5ccc(N(C)C)cc5C)cc4C)cc3C)nc2c1 [Example 26] | 0,76 | 2,0% |  |  | 
26 | CCCCc1ccc2nn(-c3ccc(N=Nc4ccc(N=Nc5ccc(N(C)C)cc5C)cc4C)cc3C)nc2c1 [Example 27] | 0,75 | 3,9% |  |  | 
27 | Cc1ccc2nn(-c3ccc(N=Nc4ccc(N=Nc5ccc(N(C)CC(C)C)cc5C)cc4C)cc3C)nc2c1 [Example 28] |  |  |  | 0,72 | 1,5%
28 | CCCCN(C)c1ccc(N=Nc2cc(C)c(N=Nc3ccc(-n4nc5ccc(C)cc5n4)c(C)c3)cc2OC)cc1 [Example 29] |  |  |  | 0,71 | 0,5%
29 | CCCCN(C)c1ccc(N=Nc2cc(OC)c(N=Nc3ccc(-n4nc5ccc(C)cc5n4)c(C)c3)cc2OC)cc1 [Example 30] |  |  |  | 0,67 | 0,3%
30 | CCCCc1ccc2nn(-c3ccc(N=Nc4cc(C)c(N=Nc5ccc(NC)c6ccccc56)cc4C)cc3C)nc2c1 [Example 31] | 0,70 | 2,0% |  |  | 
31 | CCCCc1ccc2nn(-c3ccc(N=Nc4cc(C)c(N=Nc5ccc(N(C)C)c6ccccc56)cc4C)cc3C)nc2c1 [Example 32] | 0,65 | 0,1% |  |  | 
